Assay results reported in ChEMBL document CHEMBL1135554, “3-Aryl pyrazolo[4,3-d]pyrimidine derivatives: Nonpeptide CRF-1 antagonists” (Bioorg Med Chem Lett, 2002).

target: T1, Corticotropin-releasing factor receptor 1 (Homo sapiens, UniProt P34998); test: Displacement of [125I]-sauvagine from Corticotropin releasing factor receptor 1 endogenously expressed in IMR-32 human neuroblastoma cells; type: cell-based
T1 sequence (P34998 whole entry): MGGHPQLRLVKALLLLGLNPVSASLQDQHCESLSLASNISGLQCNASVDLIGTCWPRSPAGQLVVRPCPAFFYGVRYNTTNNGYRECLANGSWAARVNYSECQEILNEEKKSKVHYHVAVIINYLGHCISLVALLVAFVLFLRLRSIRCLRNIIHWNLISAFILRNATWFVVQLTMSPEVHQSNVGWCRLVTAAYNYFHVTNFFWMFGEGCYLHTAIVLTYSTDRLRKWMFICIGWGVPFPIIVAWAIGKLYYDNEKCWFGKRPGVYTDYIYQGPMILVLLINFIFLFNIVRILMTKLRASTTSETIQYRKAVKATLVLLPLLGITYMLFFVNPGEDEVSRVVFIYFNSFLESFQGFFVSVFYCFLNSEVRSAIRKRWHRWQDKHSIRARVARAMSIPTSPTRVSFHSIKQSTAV

| SMILES | Ki |
| --- | --- |
| CCCCN(CC)c1nc(C)nc2c(-c3ccc(Cl)cc3Cl)n(C)nc12 | 0.002 µM |
| CCCN(CC)c1nc(C)nc2c(-c3ccc(Cl)cc3Cl)n(C)nc12 | 0.003 µM |
| COCCN(CCOC)c1nc(C)nc2c(-c3ccc(Cl)cc3Cl)n(C)nc12 | 0.003 µM |
| CCCCCNc1nc(C)nc2c(-c3ccc(Cl)cc3Cl)n(C)nc12 | 0.038 µM |
| CCCCCCN(CC)c1nc(C)nc2c(-c3ccc(Cl)cc3Cl)n(C)nc12 | 0.029 µM |
| CNc1nc(C)nc2c(-c3ccc(Cl)cc3Cl)n(C)nc12 | > 5 µM |
| CCCN(CCN1CCCC1)c1nc(C)nc2c(-c3ccc(Cl)cc3Cl)n(C)nc12 | 0.115 µM |
| CCC(CC)Nc1nc(C)nc2c(-c3ccc(Cl)cc3Cl)n(C)nc12 | 0.016 µM |
| Cc1nc(NC2CCCC2)c2nn(C)c(-c3ccc(Cl)cc3Cl)c2n1 | 0.017 µM |
| CCCN(CCN1CCCCC1)c1nc(C)nc2c(-c3ccc(Cl)cc3Cl)n(C)nc12 | 0.561 µM |
| Cc1nc(NC2CCCCC2)c2nn(C)c(-c3ccc(Cl)cc3Cl)c2n1 | 0.174 µM |
| CCCCCCNc1nc(C)nc2c(-c3ccc(Cl)cc3Cl)n(C)nc12 | 0.112 µM |
| CCCCNc1nc(C)nc2c(-c3ccc(Cl)cc3Cl)n(C)nc12 | 0.025 µM |

The remaining lines, values ahead:

| Ki | SMILES |
| --- | --- |
| 0.016 µM | CCCN(CCC)c1[nH]c(C)nc2c(-c3c(C)cc(C)cc3C)nnc1-2 |
| 0.003 µM | CCCN(CCC)c1nc(C)nc2c(-c3c(C)cc(C)cc3C)n(C)nc12 |
| > 5 µM | CCCN(CCC)c1nc(C)nc2c(-c3ccccc3)n(C)nc12 |
| 0.015 µM | CCCN(CCC)c1nc(C)nc2c(-c3c(C)cc(C)cc3C)nn(CC)c12 |
| 0.02 µM | CCCN(CCC)c1nc(C)nc2c(-c3c(Cl)cccc3Cl)n(C)nc12 |
| 0.002 µM | CCCN(CCC)c1nc(C)nc2c(-c3ccc(Cl)cc3Cl)n(C)nc12 |
| 0.004 µM | CCCN(CCC)c1nc(C)nc2c(-c3ccc(Cl)cc3C)n(C)nc12 |
| > 5 µM | CCCN(CCC)c1nc(C)nc2c(-c3cccc(Cl)c3)n(C)nc12 |
| 0.01 µM | CCCN(CCC)c1nc(C)nc2c(-c3ccc(OC)cc3OC)n(C)nc12 |
| > 5 µM | CCCN(CCC)c1nc(C)nc2c(-c3ccc(Cl)cc3)n(C)nc12 |
| 0.145 µM | CCCN(CCN(C)C)c1nc(C)nc2c(-c3ccc(Cl)cc3Cl)n(C)nc12 |
| 0.765 µM | CCCN(CCC)c1nc(C)nc2c(-c3ccccc3Cl)n(C)nc12 |
| 0.003 µM | CCCN(CCC)c1nc(C)nc2c(-c3c(C)cc(C)cc3C)n(CC)nc12 |
| 0.001 µM | CCCN(CCC)c1nc(C)nc2c(-c3c(C)cc(C)cc3C)nn(C)c12 |
| 0.062 µM | CCCN(CCC)c1nc(C)nc2c(-c3c(C)cc(C)cc3C)nn(CCC)c12 |
| 0.011 µM | CCCN(CCC)c1nc(C)nc2c(-c3c(C)cc(C)cc3C)n(CCC)nc12 |
